{"source": "ChEMBL document CHEMBL3734669", "about": "“Δ(5)-Cholenoyl-amino acids as selective and orally available antagonists of the Eph-ephrin system” (Eur J Med Chem, 2015)", "key": {"Ephrin type-A receptor 4": {"biological_target": "Ephrin type-A receptor 4 (Homo sapiens, UniProt P54764)", "sequence (P54764 whole entry)": "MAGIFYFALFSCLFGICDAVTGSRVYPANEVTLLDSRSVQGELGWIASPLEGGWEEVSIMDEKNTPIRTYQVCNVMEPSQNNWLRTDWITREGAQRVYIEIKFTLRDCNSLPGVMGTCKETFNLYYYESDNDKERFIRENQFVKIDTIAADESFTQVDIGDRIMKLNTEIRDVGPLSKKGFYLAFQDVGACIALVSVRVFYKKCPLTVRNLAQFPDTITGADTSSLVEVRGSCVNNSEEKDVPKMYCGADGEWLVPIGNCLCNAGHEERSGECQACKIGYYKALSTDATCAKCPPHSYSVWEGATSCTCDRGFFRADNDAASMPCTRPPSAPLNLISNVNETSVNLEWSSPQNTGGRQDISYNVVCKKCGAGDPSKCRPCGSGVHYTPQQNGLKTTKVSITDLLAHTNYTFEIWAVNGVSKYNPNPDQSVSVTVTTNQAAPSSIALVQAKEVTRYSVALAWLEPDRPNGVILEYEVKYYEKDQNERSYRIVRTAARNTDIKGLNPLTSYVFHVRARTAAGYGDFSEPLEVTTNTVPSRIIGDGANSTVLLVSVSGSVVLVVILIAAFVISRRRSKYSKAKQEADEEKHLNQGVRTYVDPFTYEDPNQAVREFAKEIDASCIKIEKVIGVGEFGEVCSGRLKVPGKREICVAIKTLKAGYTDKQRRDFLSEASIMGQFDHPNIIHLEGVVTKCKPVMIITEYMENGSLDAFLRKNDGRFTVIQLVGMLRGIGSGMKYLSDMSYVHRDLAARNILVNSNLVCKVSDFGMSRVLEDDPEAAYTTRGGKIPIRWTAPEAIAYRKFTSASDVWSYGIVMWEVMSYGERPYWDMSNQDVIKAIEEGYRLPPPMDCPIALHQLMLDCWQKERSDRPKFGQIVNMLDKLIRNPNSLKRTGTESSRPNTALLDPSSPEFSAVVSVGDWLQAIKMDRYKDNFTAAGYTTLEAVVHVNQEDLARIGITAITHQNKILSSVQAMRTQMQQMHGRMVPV", "assay": "Displacement of biotinylated ephrin-A1-Fc from EphA4 (unknown origin) preincubated for 1 hr followed by biotinylated-ephrin-A1-Fc addition measured after 4 hrs by ELISA"}, "[1]": {"biological_target": "T1, G-protein coupled bile acid receptor 1 (Homo sapiens) (UniProt Q8TDU6)", "T1 sequence (whole entry)": "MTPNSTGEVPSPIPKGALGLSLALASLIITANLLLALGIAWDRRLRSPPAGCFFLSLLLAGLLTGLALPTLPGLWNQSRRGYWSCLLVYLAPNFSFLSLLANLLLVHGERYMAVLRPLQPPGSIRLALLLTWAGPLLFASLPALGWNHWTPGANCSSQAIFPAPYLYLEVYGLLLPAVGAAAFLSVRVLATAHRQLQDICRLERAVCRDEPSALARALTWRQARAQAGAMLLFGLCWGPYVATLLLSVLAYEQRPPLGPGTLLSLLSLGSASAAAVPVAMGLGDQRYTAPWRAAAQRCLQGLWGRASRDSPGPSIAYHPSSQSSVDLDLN", "assay": "Agonist activity at TGR5 (unknown origin) assessed as cAMP level up to 30 uM", "format": "functional"}, "[2]": {"assay": "Cmax in mouse at 30 mg/kg, po administered as single dose by HPLC-MS analysis", "format": "ADME, organism-based", "design": "dose 30 mg/kg, route oral", "settings": "in vivo"}, "[3]": {"assay": "n-octanol-water distribution coefficient, log D of the compound at pH 7.4 after 4 hrs by shake-flask method", "format": "physicochemical"}, "[4]": {"assay": "AUC (0 to t) in mouse at 30 mg/kg, po administered as single dose by HPLC-MS analysis", "format": "ADME, organism-based", "settings": "in vivo"}, "Ephrin type-B receptor 6": {"biological_target": "T2, Ephrin type-B receptor 6 (Homo sapiens, UniProt O15197)", "T2 sequence (O15197 whole entry)": "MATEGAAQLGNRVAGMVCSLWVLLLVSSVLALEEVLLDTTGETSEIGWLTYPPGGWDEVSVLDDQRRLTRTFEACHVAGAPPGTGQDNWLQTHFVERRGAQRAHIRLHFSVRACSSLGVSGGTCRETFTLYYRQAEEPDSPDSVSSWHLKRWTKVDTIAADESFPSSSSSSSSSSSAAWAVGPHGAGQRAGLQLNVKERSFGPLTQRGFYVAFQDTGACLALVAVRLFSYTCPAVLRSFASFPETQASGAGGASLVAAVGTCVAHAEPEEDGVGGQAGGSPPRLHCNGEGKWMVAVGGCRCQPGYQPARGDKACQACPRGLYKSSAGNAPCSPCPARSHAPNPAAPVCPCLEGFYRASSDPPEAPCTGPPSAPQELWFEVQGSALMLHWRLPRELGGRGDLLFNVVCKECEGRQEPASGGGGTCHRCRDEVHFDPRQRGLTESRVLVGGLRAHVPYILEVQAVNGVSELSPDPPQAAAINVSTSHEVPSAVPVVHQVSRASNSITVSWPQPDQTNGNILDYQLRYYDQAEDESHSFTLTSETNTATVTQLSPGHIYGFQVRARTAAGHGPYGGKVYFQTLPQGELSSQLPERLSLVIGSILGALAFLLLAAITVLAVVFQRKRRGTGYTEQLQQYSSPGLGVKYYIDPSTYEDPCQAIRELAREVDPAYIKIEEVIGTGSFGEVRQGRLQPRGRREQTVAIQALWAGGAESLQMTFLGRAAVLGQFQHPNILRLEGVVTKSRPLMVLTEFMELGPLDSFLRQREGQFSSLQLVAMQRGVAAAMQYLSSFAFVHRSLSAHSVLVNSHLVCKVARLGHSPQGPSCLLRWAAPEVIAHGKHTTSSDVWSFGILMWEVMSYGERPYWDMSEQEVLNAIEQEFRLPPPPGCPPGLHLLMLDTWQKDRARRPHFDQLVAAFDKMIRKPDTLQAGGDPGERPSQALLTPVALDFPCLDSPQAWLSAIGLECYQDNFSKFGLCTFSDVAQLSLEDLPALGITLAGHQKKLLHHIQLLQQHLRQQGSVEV", "assay": "(§1) Displacement of biotinylated ephrin-B1-Fc from EphB6 (unknown origin) preincubated for 1 hr followed by biotinylated-ephrin-B1-Fc addition measured after 4 hrs by ELISA"}, "[5]": {"biological_target": "T3, Ephrin type-B receptor 6 (Homo sapiens) (UniProt O15197)", "T3 sequence (whole entry)": "T2 sequence (O15197 whole entry)", "assay": "as §1"}, "[6]": {"assay": "Cytotoxicity against human PC3 cells at 10 to 30 uM after 2 hrs by LDH release assay", "format": "cell-based", "settings": "pc-3, 2 h"}}, "note": "The source made the active and inactive calls. The calls are words filed in the database; no cut-off is given here.", "data": [{"smiles": "C[C@H](CCC(=O)N[C@@H](Cc1c[nH]c2ccccc12)C(=O)O)[C@H]1CC[C@H]2[C@@H]3CC=C4C[C@@H](O)CC[C@]4(C)[C@H]3CC[C@]12C", "values": [{"measurement": "IC50", "setting": "Ephrin type-A receptor 4", "value": 3.8, "unit": "µM"}, {"measurement": "inhibition", "setting": "Ephrin type-A receptor 4", "value": "Dose-dependent effect"}, {"measurement": "Activity", "setting": "[1]", "value": "inactive"}, {"measurement": "Cmax", "setting": "[2]", "value": 1400, "unit": "nM"}, {"measurement": "logD at 4 h", "setting": "[3]", "value": 4.01}, {"measurement": "AUC(0-t)", "setting": "[4]", "value": 573, "unit": "ng·h/mL"}, {"measurement": "IC50", "setting": "Ephrin type-B receptor 6", "value": 3.3, "unit": "µM"}, {"measurement": "inhibition", "setting": "[5]", "value": "Dose-dependent effect"}, {"measurement": "Activity", "setting": "[6]", "value": "Non-toxic"}]}]}
